This is an account of results in patent publication US20150141411A1, “SUBSTITUTED 3,4-DIHYDRO-2H-PYRIDO[1,2-A]PYRAZINE-1,6-DIONE DERIVATIVES USEFUL FOR THE TREATMENT OF (INTER ALIA) ALZHEIMER'S DISEASE” (Janssen Pharmaceuticals, Inc., priority 2012, published 2015).

Assay [1] addresses T1, γ-secretase (Homo sapiens, UniProt P49768).
T1 construct: endogenous in cells; host or cells: SKNBE2 human neuroblastoma cells (carrying hAPP 695 wild type as substrate)
Put plainly: Screening for γ-secretase-modulating activity: Aβ42 in supernatant of SKNBE2 cells carrying hAPP 695 wild type (Alphalisa). It counts as cell-based. The following applies: SKNBE2 human neuroblastoma cells carrying hAPP 695 wild type, overnight incubation, Aβ42 in cell supernatant. On the procedure: (§1) Screening was carried out using SKNBE2 human neuroblastoma cells carrying the hAPP 695—wild type, grown in Dulbecco's Modified Eagle's Medium/Nutrient mixture F-12 (DMEM/NUT-mix F-12) (HAM) provided by Invitrogen (cat no. 10371-029) containing 5% Serum/Fe supplemented with 1% non-essential amino acids, 1-glutamine 2 mM, Hepes 15 mM, penicillin 50 U/ml (units/ml) en streptomycin 50 μg/ml. Cells were grown to near confluency.
(§2) The screening was performed using a modification of the assay as described in Citron et al (1997) Nature Medicine 3: 67. Briefly, cells were plated in a 384-well plate at 10^4 cells/well in Ultraculture (Lonza, BE12-725F) supplemented with 1% glutamine (Invitrogen, 25030-024), 1% non-essential amino acid (NEAA), penicillin 50 U/ml en streptomycin 50 μg/ml in the presence of test compound at different test concentrations. The cell/compound mixture was incubated overnight at 37° C., 5% CO2. The next day the media were assayed by two sandwich immuno-assays, for Aβ42 and Aβ total.
(§3) Aβtotal and Aβ42 concentrations were quantified in the cell supernatant using the Aphalisa technology (Perkin Elmer). Alphalisa is a sandwich assay using biotinylated antibody attached to streptavidin coated donorbeads and antibody conjugated to acceptor beads. In the presence of antigen, the beads come into close proximity. The excitation of the donor beads provokes the release of singlet oxygen molecules that trigger a cascade of energy transfer in the acceptor beads, resulting in light emission. To quantify the amount of Aβ42 in the cell supernatant, monoclonal antibody specific to the C-terminus of Aβ42 (JRF/cAβ42/26) was coupled to the receptor beads and biotinylated antibody specific to the N-terminus of Aβ (JRF/AβN/25) was used to react with the donor beads. To quantify the amount of Aβtotal in the cell supernatant, monoclonal antibody specific to the N-terminus of Aβ (JRF/AβN/25) was coupled to the receptor beads and biotinylated antibody specific to the mid region of Aβ (biotinylated 4G8) was used to react with the donor beads.
(§4) To obtain the values reported in Table 3, the data are calculated as percentage of the maximum amount of amyloid Beta 42 measured in the absence of the test compound. The sigmoidal dose response curves were analyzed using non-linear regression analysis with percentage of the control plotted against the log concentration of the compound. A 4-parameter equation was used to determine the IC50.
(In general: Bead proximity is the source of the signal in Alpha formats.)

The target of assay [2] is T1, γ-secretase. The assay can be described thus: Screening for γ-secretase-modulating activity: Aβtotal in supernatant of SKNBE2 cells carrying hAPP 695 wild type (Alphalisa). The following applies: SKNBE2 human neuroblastoma cells carrying hAPP 695 wild type, overnight incubation, Aβtotal in cell supernatant. Format: cell-based. On the procedure: as §1, §2, §3, §4

Structures are written as SMILES.

Usually IC50 stands for the concentration at which inhibition is half-maximal. Consider `Cc1cn(-c2ccc3n(c2=O)C[C@@H](C)N(C(C)c2cc(CC4CC4)cc(C(F)(F)F)c2)C3=O)cn1` (single isomer, unassigned) [compound 135], for which the IC50 was 20 nM on γ-secretase [1] and > 10000 nM against γ-secretase [2].
As for `Cc1cn(-c2ccc3n(c2=O)CC(C)N(Cc2ccc(C)c(N4CCCCC4)c2)C3=O)cn1` (stereo not shown) [compound 4], the figures for the IC50 against γ-secretase [1] and at γ-secretase [2] were 80 nM and > 10000 nM, respectively.
On the same counts, the results for `Cc1cn(-c2ccc3n(c2=O)C[C@@H](C)N(Cc2cn(C)c4c(C(F)(F)F)cc(F)cc24)C3=O)cn1` [compound 261] are 60 nM and > 10000 nM.
On the same counts, the results for `Cc1cn(-c2ccc3n(c2=O)CC(C)N(C2CCc4ccc(C(F)(F)F)cc42)C3=O)cn1` (stereo not shown) [compound 204] are 120 nM and > 10000 nM.
Take `C[C@@H]1Cn2c(ccc(-n3ccnc3)c2=O)C(=O)N1Cc1cc(C(F)(F)F)cc(C(F)(F)F)c1` [compound 173]: the IC50 at γ-secretase [1] is 1260 nM; against γ-secretase [2] it was > 10000 nM.
On the same counts, the results for `Cc1cn(-c2ccc3n(c2=O)CC(C)N(Cc2c[nH]c4cc(Br)ccc24)C3=O)cn1` (stereo not shown) [compound 125] are 50 nM and > 10000 nM.
On the same counts, the results for `CCOCc1cc(CN2C(=O)c3ccc(-n4cnc(C)c4)c(=O)n3C[C@H]2C)cc(C(F)(F)F)c1` [compound 76] are 190 nM and > 10000 nM.
Take `Cc1cn(-c2ccc3n(c2=O)CCN(C(C)c2cccc(Cl)c2Cl)C3=O)cn1` (racemic) [compound 10]: the IC50 on γ-secretase [1] was 220 nM; on γ-secretase [2] it was > 10000 nM.
Turning to `Cc1cn(-c2ccc3n(c2=O)C[C@@H](C)N(Cc2csc4ccc(Cl)cc24)C3=O)cn1` [compound 165], the figures for the IC50 on γ-secretase [1] and at γ-secretase [2] were 20 nM and > 10000 nM, respectively.
The like results for `CCn1cc(CN2C(=O)c3ccc(-n4cnc(C)c4)c(=O)n3C[C@H]2C)c2cc(C3CC3)ccc21` [compound 247] were, in that order, 10 nM and 6000 nM.
The like results for `Cc1cn(-c2ccc3n(c2=O)C[C@@H](C)N(C(C)c2cc(Cl)cc(Cl)c2)C3=O)cn1` (single isomer, unassigned) [compound 210] were, in that order, 260 nM and > 10000 nM.
Turning to `Cc1cncn1-c1ccc2n(c1=O)CCCN(Cc1ccc(Cl)c(Cl)c1)C2=O` [compound 122], the IC50 on γ-secretase [1] and against γ-secretase [2] was > 10000 nM in each case.
As to `COC[C@@H]1Cn2c(ccc(-n3cnc(C)c3)c2=O)C(=O)N1Cc1cc(C(F)(F)F)cc(C(F)(F)F)c1` [compound 47], the IC50 was 260 nM on γ-secretase [1] and > 10000 nM at γ-secretase [2].
On the same counts, the results for `CCn1cc(CN2C(=O)c3ccc(-n4cnc(C)c4)c(=O)n3C[C@H]2C)c2cc(C(F)(F)F)ccc21` [compound 227] are 10 nM and 2190 nM.
As to `Cc1cn(-c2ccc3n(c2=O)C[C@@H](C)N(Cc2cn(C)c4ccc(C5CC5)cc24)C3=O)cn1` [compound 246], the values for the IC50 on γ-secretase [1] and against γ-secretase [2] were 20 nM and 7000 nM, respectively.
For `COc1ccc2c(c1)c(CN1C(=O)c3ccc(-n4cnc(C)c4)c(=O)n3CC1C)cn2C(C)C` (stereo not shown) [compound 222], the IC50 on γ-secretase [1] was 60 nM; at γ-secretase [2], > 10000 nM.
With `Cc1cn(-c2ccc3n(c2=O)C[C@@H](C2CC2)N(Cc2ccc(Cl)c(Cl)c2)C3=O)cn1` [compound 33], the IC50 against γ-secretase [1] was 1660 nM; at γ-secretase [2] it was > 10000 nM.
As for `Cc1cn(-c2ccc3n(c2=O)CC(C)N(C(C)c2c[nH]c4cc(F)c(Cl)cc24)C3=O)cn1` (single isomer, unassigned) [compound 187], the IC50 on γ-secretase [1] came to 190 nM; on γ-secretase [2], 6920 nM.
On the same counts, the results for `Cc1cn(-c2ccc3n(c2=O)C[C@@H](C)N(Cc2cn(C)c4cc(F)ccc24)C3=O)cn1` [compound 242] are 260 nM and > 10000 nM.
As to `Cc1cn(-c2ccc3n(c2=O)C[C@@H](CN(C)C)N(Cc2cc(C(F)(F)F)cc(C(F)(F)F)c2)C3=O)cn1` [compound 48], the IC50 was 580 nM at γ-secretase [1] and > 10000 nM at γ-secretase [2].
